Results as given in patent US9426996B2, “Use of benzoxaboroles as volatile antimicrobial agents on meats, plants, or plant parts” (AgroFresh Inc., priority 2013, dated 2016).

Assays:
Botrytis cinerea [1] = experiment: white carnations with natural inoculum, fog or passive volatile treatment; format: in vivo; details: 8 days of shelf-life
Procedure: A similar test like the one described above is also performed on white carnations (treated with or without the commercial anti-ethylene compound silver thiosulfate; STS) with natural inoculum. Compound A is either dissolved in an aqueous 1,2-propylene glycol solution (3:1) and 5 mL of the solution volatilized using an ES-100-H SmartFog system (Reno, Nev.) through a ½″ side port that is sealed immediately after the application, or dissolved in acetone and applied to a 42.5 millimeter (mm) Whatman #1 filter disk (Cat. No. 1001-042), and placed on a watch glass after allowing the acetone to evaporate for 5 minutes. The flowers are incubated for 3 days at 21° C. After storage, the flowers are evaluated for an additional 8 days for disease severity based on the number of lesions present on flower petals and sepals.

Botrytis cinerea [2] = experiment: in vivo strawberry assay, release from cardboard or filter paper; details: strawberries
Source text: An in vivo assay is used to evaluate the ability of Compound A to volatilize from different materials and control fungal pathogens. Eight strawberries are placed in a clamshell with the stem end facing downwards. […] The clamshells are then placed in a 10.8-cup SnapWare airtight container (Model #109842). As a substrate for Compound A, either a 42.5 mm Whatman #1 filter disk (Cat. No. 1001-042) placed on a watch glass or 10 square centimeter (cm^2) pieces of cardboard typically used for packaging strawberries was used. Compound A is dissolved in acetone and either pipetted on the disk or painted on the cardboard at a rate to achieve a final headspace concentration of 0.4, 2, or 10 mg/L. The acetone is permitted to evaporate for five minutes. The containers are closed, and placed for three days at 21° C. After treatment, fruit are stored for an additional two days at 21° C. and then evaluated for incidence (%) and severity (0 to 4) of disease, with the results summarized in Table 24.

Botrytis cinerea [3] = experiment: in vitro inhibition assay for volatile antimicrobial compounds (12-well PDA plates); format: cell-based; details: in vitro; volatile; 14 days at 4° C.
Procedure: 12-Well (7 milliliter (mL volume per well) microtiter plates are used for the in vitro inhibition assay for volatile antimicrobial compounds. A 3-mL volume of full-strength Potato Dextrose Agar (PDA) is added to each well. After cooling, 1 microliter (μL) of 1×10^6 per mL Botrytis cinerea spore suspension is spot pipetted to the center of the agar. For the first experiment, inoculated plates are allowed to germinate for 5 days at 4° C. For the second experiment, plates are inoculated immediately prior to volatile fungicide treatment. Small Whatman #1 filter disks (Cat. No. 1001-0155) are placed, in duplicate, on the underside of a polyethylene PCR plate sealing film.
The acetone is permitted to evaporate for 5 minutes. The headspace around the Botrytis cinerea inoculum is then sealed inside the well by the film with the adhering disk containing the fungicide. Plates are inverted, placed over the treated disks and sealed to prevent any of the chemical from flaking from the disk and falling onto the inoculated agar. After 14 days of storage at 4° C., cultures are evaluated for percent growth relative to control. Regardless of whether the spores had germinated for 5 days, or if the treatment commenced soon after inoculation of the plates (˜15 minutes); there is 100% control of the fungal pathogen down to 0.005 mg.
A total of 14 antimicrobial compounds are tested using the in vitro inhibition assay described in Example 1. All 14 compounds are applied to the Whatman disks, in duplicate, in a dose dependent manner (0.31 to 0.0006 mg/disk). […] Other compounds, such as Compound C, Compound D, and Compound E conferred 100% control down to 0.023, 0.04, and 0.08 mg/disk, respectively. Results of nine compounds are summarized in Table 2, where the other five compounds show no detected activity in the ranges tested. […]

Botrytis cinerea [4] = experiment: in vitro spore germination assay, temperature regimes; format: cell-based; details: B. cinerea spores; for inhibition at 0.035 µg/mL: 0.035 mg/L; for inhibition at 0.07 µg/mL: 0.07 mg/L; for inhibition at 0.14 µg/mL: 0.14 mg/L
Procedure: (§1) In order to assess the activity of Compound A as a volatile fungicide, an in vitro assay is developed to evaluate spore germination. Two mL of water agar is poured in 3.5 cm Petri plates. […] Plates are then incubated for either one day at 0° C., five day at 0° C., or five day at 0° C. plus an additional one or two days at 21° C.

Penicillium expansum = experiment: as above; format: cell-based; details: P. expansum spores; for inhibition at 0.035 µg/mL: 0.035 mg/L; for inhibition at 0.07 µg/mL: 0.07 mg/L; for inhibition at 0.14 µg/mL: 0.14 mg/L
Procedure: as §1

Alternaria alternata = experiment: combination treatment with 1-MCP on broccoli; format: in vivo; design: scale not given here; details: 11 C.

OB1OCc2cc(F)ccc21 [Compound A]
Severity (Average Number of Lesions) (Botrytis cinerea [1]; Petals, 0.04 mg/L, Non-STS, Fog): 0.4
Severity (Average Number of Lesions) (Botrytis cinerea [1]; Petals, 0.04 mg/L, Non-STS, Volatile): 3.1
Severity (Average Number of Lesions) (Botrytis cinerea [1]; Petals, 0.04 mg/L, STS, Fog): 0.3
Severity (Average Number of Lesions) (Botrytis cinerea [1]; Petals, 0.04 mg/L, STS, Volatile): 0.5
Severity (Average Number of Lesions) (Botrytis cinerea [1]; Petals, 0.2 mg/L, Non-STS, Fog): 0
Severity (Average Number of Lesions) (Botrytis cinerea [1]; Petals, 0.2 mg/L, Non-STS, Volatile): 1.8
Severity (Average Number of Lesions) (Botrytis cinerea [1]; Petals, 0.2 mg/L, STS, Fog): 0
Severity (Average Number of Lesions) (Botrytis cinerea [1]; Petals, 0.2 mg/L, STS, Volatile): 0.1
Severity (Average Number of Lesions) (Botrytis cinerea [1]; Petals, 1 mg/L, Non-STS, Fog): 0
Severity (Average Number of Lesions) (Botrytis cinerea [1]; Petals, 1 mg/L, Non-STS, Volatile): 1.5
Severity (Average Number of Lesions) (Botrytis cinerea [1]; Petals, 1 mg/L, STS, Fog): 0
Severity (Average Number of Lesions) (Botrytis cinerea [1]; Petals, 1 mg/L, STS, Volatile): 0.1
Severity (Average Number of Lesions) (Botrytis cinerea [1]; Sepals, 0.04 mg/L, Non-STS, Fog): 0.3
Severity (Average Number of Lesions) (Botrytis cinerea [1]; Sepals, 0.04 mg/L, Non-STS, Volatile): 2.1
Severity (Average Number of Lesions) (Botrytis cinerea [1]; Sepals, 0.04 mg/L, STS, Fog): 0.6
Severity (Average Number of Lesions) (Botrytis cinerea [1]; Sepals, 0.04 mg/L, STS, Volatile): 1.1
Severity (Average Number of Lesions) (Botrytis cinerea [1]; Sepals, 0.2 mg/L, Non-STS, Fog): 0.04
Severity (Average Number of Lesions) (Botrytis cinerea [1]; Sepals, 0.2 mg/L, Non-STS, Volatile): 1.6
Severity (Average Number of Lesions) (Botrytis cinerea [1]; Sepals, 0.2 mg/L, STS, Fog): 0.1
Severity (Average Number of Lesions) (Botrytis cinerea [1]; Sepals, 0.2 mg/L, STS, Volatile): 0.3
Severity (Average Number of Lesions) (Botrytis cinerea [1]; Sepals, 1 mg/L, Non-STS, Fog): 0.04
Severity (Average Number of Lesions) (Botrytis cinerea [1]; Sepals, 1 mg/L, Non-STS, Volatile): 1
Severity (Average Number of Lesions) (Botrytis cinerea [1]; Sepals, 1 mg/L, STS, Fog): 0.04
Severity (Average Number of Lesions) (Botrytis cinerea [1]; Sepals, 1 mg/L, STS, Volatile): 0.2
Incidence (%) (Botrytis cinerea [2]; 0.4 mg/L, Cardboard): 87.5%
Severity (0-4) (Botrytis cinerea [2]; 0.4 mg/L, Cardboard): 0.9
Incidence (%) (Botrytis cinerea [2]; 0.4 mg/L, Filter Paper): 56.3%
Severity (0-4) (Botrytis cinerea [2]; 0.4 mg/L, Filter Paper): 2.5
Incidence (%) (Botrytis cinerea [2]; 2 mg/L, Cardboard): 37.5%
Severity (0-4) (Botrytis cinerea [2]; 2 mg/L, Cardboard): 0.3
Incidence (%) (Botrytis cinerea [2]; 2 mg/L, Filter Paper): 37.5%
Severity (0-4) (Botrytis cinerea [2]; 2 mg/L, Filter Paper): 0.6
Incidence (%) (Botrytis cinerea [2]; 10 mg/L, Cardboard): 25%
Severity (0-4) (Botrytis cinerea [2]; 10 mg/L, Cardboard): 0.2
Incidence (%) (Botrytis cinerea [2]; 10 mg/L, Filter Paper): 18.8%
Severity (0-4) (Botrytis cinerea [2]; 10 mg/L, Filter Paper): 0.3
lowest rate with 100% control of Botrytis cinerea (Botrytis cinerea [3]): 0.005 mg/disk
inhibition at 0.035 µg/mL (Botrytis cinerea [4]; 24 h, 1 day, 0° C.): 0%
inhibition at 0.07 µg/mL (Botrytis cinerea [4]; 24 h, 1 day, 0° C.): 0%
inhibition at 0.14 µg/mL (Botrytis cinerea [4]; 24 h, 1 day, 0° C.): 0%
inhibition at 0.035 µg/mL (Botrytis cinerea [4]; 120 h, 5 day, 0° C.): 0%
inhibition at 0.07 µg/mL (Botrytis cinerea [4]; 120 h, 5 day, 0° C.): 0%
inhibition at 0.14 µg/mL (Botrytis cinerea [4]; 120 h, 5 day, 0° C.): 0%
inhibition at 0.035 µg/mL (Botrytis cinerea [4]; 5 day, 0° C. 1 day, 21° C.): 0%
inhibition at 0.07 µg/mL (Botrytis cinerea [4]; 5 day, 0° C. 1 day, 21° C.): 0%
inhibition at 0.14 µg/mL (Botrytis cinerea [4]; 5 day, 0° C. 1 day, 21° C.): 0%
inhibition at 0.035 µg/mL (Penicillium expansum; 24 h, 1 day, 0° C.): 0%
inhibition at 0.07 µg/mL (Penicillium expansum; 24 h, 1 day, 0° C.): 0%
inhibition at 0.14 µg/mL (Penicillium expansum; 24 h, 1 day, 0° C.): 0%
inhibition at 0.035 µg/mL (Penicillium expansum; 120 h, 5 day, 0° C.): 0%
inhibition at 0.07 µg/mL (Penicillium expansum; 120 h, 5 day, 0° C.): 0%
inhibition at 0.14 µg/mL (Penicillium expansum; 120 h, 5 day, 0° C.): 0%
inhibition at 0.035 µg/mL (Penicillium expansum; 5 day, 0° C. 1 day, 21° C.): 0%
inhibition at 0.07 µg/mL (Penicillium expansum; 5 day, 0° C. 1 day, 21° C.): 0%
inhibition at 0.14 µg/mL (Penicillium expansum; 5 day, 0° C. 1 day, 21° C.): 0%
Color Score (Alternaria alternata; 0.4 mg/L): 1.75
Severity (Alternaria alternata; 0.4 mg/L): 0.00
Color Score (Alternaria alternata; 2 mg/L): 2.11
Severity (Alternaria alternata; 2 mg/L): 0.00
